Source: patent US20250290117A1, “MOLECULAR PHENOTYPIC ANTIMICROBIAL SUSCEPTIBILITY TESTING” (priority 2024, published 2025)

Test system: pathogen of the specimen
Assay: Molecular phenotypic antimicrobial susceptibility test with direct PCR at various incubation timepoints (Table 7)
Format: cell-based
Procedure: Detection of Molecular Phenotypic Antimicrobial Susceptibility. Disclosed herein are the methods for the detection of phenotypic antimicrobial susceptibility via molecular methods. The present invention describes how a specimen 100 with a known microbial load is incubated and then exposed to a panel of antimicrobial agents to determine sensitivity (prevention of growth) or resistance (allowance of growth) to the specific antimicrobial agents tested utilizing molecular methods. Sample Collection. Specimens 100 are collected from patients using sterile collection processes that are employed in routine clinical care. Specimens are transported to the testing facility in boric acid preservative. […] The process for pathogen isolation includes steps of harvesting the pathogen (e.g., via centrifugation), isolating pathogen DNA via a DNA isolation and/or purification kit, and performing PCR on the pathogen DNA via PCR components (e.g., primers, enzymes, buffers) as would be known to the skilled artisan. […] This aliquot is used for antimicrobial susceptibility testing if indicated based on the pathogen detection results. […] Specimens 100 with lower pathogen loads could also be utilized in the antibiotic susceptibility phase of testing with or without a longer incubation period. […] Antimicrobial solutions are prepared at known concentrations. The specific antimicrobials and their concentrations are selected based on the pathogen of interest and the described antimicrobial resistance breakpoints for that specimen pathogen and antimicrobial combination. These antimicrobials have been selected based on those commonly utilized by healthcare providers in routine clinical care for the specific type of suspected infection. The number and types of antimicrobials utilized can be customized based on the infection source, pathogen detected, patient-specific factors such as allergies or other health conditions (e.g., chronic kidney disease or concurrent medication use), or healthcare provider preferences such as antimicrobial availability or cost. The antimicrobial solutions are prepared in liquid culture media (such as Muller Hinton Broth) to achieve the desired antimicrobial concentration and are then stored at −80° C. until use. For a given specimen, each antimicrobial is tested at a single or multiple antimicrobial concentration(s) which is its established breakpoints for sensitivity. The antimicrobial solutions are prepared and plated out for each specific pathogen. […] This allows for evaluation of pathogen load when no antimicrobial is present. Specimen Exposure to Antimicrobial Agents. The 1 mL aliquot of the specimen 100 previously mixed with culture media and incubated is obtained. Using optical density measurements as a guide, the specimen 100 is diluted to 0.5 McFarland. […] Antimicrobial exposure plates are typically placed into an incubator for 12-16 hours. […] Nucleic Acid Amplification of Antimicrobial Agent Exposed Pathogens. The antimicrobial exposure plate is removed after the period of incubation. The specimen then undergoes a purification or lysis step. For example, the specimen may undergo a purification step (e.g., magnetic bead-based or other separation protocol to isolate genetic material). In another example, the specimen may undergo a cell lysis step. For example, buffer (e.g., lysis buffer) may be added and incubated in the thermal cycler for preparation for direct PCR. Next, the specimen may undergo a polymerase chain reaction (PCR) testing protocol, whereby a semi-quantitative PCR method is utilized. This may be completed either with or without a specific extraction protocol step. The pathogens can be individually targeted and detected, or a universal genetic sequence can be utilized to detect the antimicrobial susceptibility of the specimen as a whole. The control wells are utilized as a threshold for determining antimicrobial sensitivity or resistance. […] Antimicrobial Susceptibility Result Interpretation.

[1] = E. coli isolate 1189, antibiotic incubation time 4 hours
[2] = E. coli isolate 1189, antibiotic incubation time 4 hours, control average Ct […]
[3] = E. coli isolate 1189, antibiotic incubation time 6 hours
[4] = E. coli isolate 1189, antibiotic incubation time 6 hours, control average Ct 16.992
[5] = E. coli isolate 1189, antibiotic incubation time 8 hours
[6] = E. coli isolate 1189, antibiotic incubation time 8 hours, control average Ct […]
[7] = E. coli isolate 1189, antibiotic incubation time 10 hours
[8] = E. coli isolate 1189, antibiotic incubation time 10 hours, control average Ct 15.995
[9] = E. coli isolate 1189, antibiotic incubation time 12 hours
[10] = E. coli isolate 1189, antibiotic incubation time 12 hours, control average Ct 15.495
[11] = E. coli isolate 1189, antibiotic incubation time 14 hours
[12] = E. coli isolate 1189, antibiotic incubation time 14 hours, control average Ct 15.826
[13] = E. coli isolate 1189, antibiotic incubation time 16 hours
[14] = E. coli isolate 1189, antibiotic incubation time 16 hours, control average Ct 14.880

| Compound | Molecular Antimicrobial Susceptibility Result [1] | Ct at Sensitive Breakpoint [2] | Molecular Antimicrobial Susceptibility Result [3] | Ct at Sensitive Breakpoint [4] | Molecular Antimicrobial Susceptibility Result [5] | Ct at Sensitive Breakpoint [6] | Molecular Antimicrobial Susceptibility Result [7] | Ct at Sensitive Breakpoint [8] | Molecular Antimicrobial Susceptibility Result [9] | Ct at Sensitive Breakpoint [10] | Molecular Antimicrobial Susceptibility Result [11] | Ct at Sensitive Breakpoint [12] | Molecular Antimicrobial Susceptibility Result [13] | Ct at Sensitive Breakpoint [14] |
| --- | --- | --- | --- | --- | --- | --- | --- | --- | --- | --- | --- | --- | --- | --- |
| C[C@@H](O)[C@H]1C(=O)N2C(C(=O)O)=C(S[C@@H]3CN[C@H](C(=O)N(C)C)C3)[C@H](C)[C@H]12 [Meropenem] | Sensitive (Antimicrobial wells with pathogen load detected below the control wells (typically >2 cycle thresholds later) may be reported as Sensitive) | 22.751 | Sensitive (Antimicrobial wells with pathogen load detected below the control wells (typically >2 cycle thresholds later) may be reported as Sensitive) | 22.884 | Sensitive (Antimicrobial wells with pathogen load detected below the control wells (typically >2 cycle thresholds later) may be reported as Sensitive) | 23.187 | Sensitive (Antimicrobial wells with pathogen load detected below the control wells (typically >2 cycle thresholds later) may be reported as Sensitive) | 23.901 | Sensitive (Antimicrobial wells with pathogen load detected below the control wells (typically >2 cycle thresholds later) may be reported as Sensitive) | 26.014 | Sensitive (Antimicrobial wells with pathogen load detected below the control wells (typically >2 cycle thresholds later) may be reported as Sensitive) | 26.211 | Sensitive (Antimicrobial wells with pathogen load detected below the control wells (typically >2 cycle thresholds later) may be reported as Sensitive) | 27.457 |
| O=C1CN(/N=C/c2ccc([N+](=O)[O-])o2)C(=O)N1 [Nitrofurantoin] | Sensitive (Antimicrobial wells with pathogen load detected below the control wells (typically >2 cycle thresholds later) may be reported as Sensitive) | 27.265 | Sensitive (Antimicrobial wells with pathogen load detected below the control wells (typically >2 cycle thresholds later) may be reported as Sensitive) | 27.430 | Sensitive (Antimicrobial wells with pathogen load detected below the control wells (typically >2 cycle thresholds later) may be reported as Sensitive) | 28.823 | Sensitive (Antimicrobial wells with pathogen load detected below the control wells (typically >2 cycle thresholds later) may be reported as Sensitive) | 27.170 | Sensitive (Antimicrobial wells with pathogen load detected below the control wells (typically >2 cycle thresholds later) may be reported as Sensitive) | 26.777 | Sensitive (Antimicrobial wells with pathogen load detected below the control wells (typically >2 cycle thresholds later) may be reported as Sensitive) | 26.788 | Sensitive (Antimicrobial wells with pathogen load detected below the control wells (typically >2 cycle thresholds later) may be reported as Sensitive) | 24.548 |
| Gentamicin | Sensitive (Antimicrobial wells with pathogen load detected below the control wells (typically >2 cycle thresholds later) may be reported as Sensitive) | 24.224 | Sensitive (Antimicrobial wells with pathogen load detected below the control wells (typically >2 cycle thresholds later) may be reported as Sensitive) | 25.270 | Sensitive (Antimicrobial wells with pathogen load detected below the control wells (typically >2 cycle thresholds later) may be reported as Sensitive) | 25.454 | Sensitive (Antimicrobial wells with pathogen load detected below the control wells (typically >2 cycle thresholds later) may be reported as Sensitive) | 25.318 | Sensitive (Antimicrobial wells with pathogen load detected below the control wells (typically >2 cycle thresholds later) may be reported as Sensitive) | 25.018 | Sensitive (Antimicrobial wells with pathogen load detected below the control wells (typically >2 cycle thresholds later) may be reported as Sensitive) | 24.069 | Sensitive (Antimicrobial wells with pathogen load detected below the control wells (typically >2 cycle thresholds later) may be reported as Sensitive) | 24.816 |
| Piperacillin/Tazobactam | Sensitive (Antimicrobial wells with pathogen load detected below the control wells (typically >2 cycle thresholds later) may be reported as Sensitive) | 20.904 | Sensitive (Antimicrobial wells with pathogen load detected below the control wells (typically >2 cycle thresholds later) may be reported as Sensitive) | 21.624 | Sensitive (Antimicrobial wells with pathogen load detected below the control wells (typically >2 cycle thresholds later) may be reported as Sensitive) | 21.570 | Sensitive (Antimicrobial wells with pathogen load detected below the control wells (typically >2 cycle thresholds later) may be reported as Sensitive) | 22.310 | Sensitive (Antimicrobial wells with pathogen load detected below the control wells (typically >2 cycle thresholds later) may be reported as Sensitive) | 22.359 | Sensitive (Antimicrobial wells with pathogen load detected below the control wells (typically >2 cycle thresholds later) may be reported as Sensitive) | 24.257 | Sensitive (Antimicrobial wells with pathogen load detected below the control wells (typically >2 cycle thresholds later) may be reported as Sensitive) | 24.143 |
| Trimethoprim/Sulfamethoxazole [TMP/SMX] | Sensitive (Antimicrobial wells with pathogen load detected below the control wells (typically >2 cycle thresholds later) may be reported as Sensitive) | 24.603 | Sensitive (Antimicrobial wells with pathogen load detected below the control wells (typically >2 cycle thresholds later) may be reported as Sensitive) | 23.984 | Sensitive (Antimicrobial wells with pathogen load detected below the control wells (typically >2 cycle thresholds later) may be reported as Sensitive) | 24.482 | Sensitive (Antimicrobial wells with pathogen load detected below the control wells (typically >2 cycle thresholds later) may be reported as Sensitive) | 24.129 | Sensitive (Antimicrobial wells with pathogen load detected below the control wells (typically >2 cycle thresholds later) may be reported as Sensitive) | 23.878 | Sensitive (Antimicrobial wells with pathogen load detected below the control wells (typically >2 cycle thresholds later) may be reported as Sensitive) | 24.017 | Sensitive (Antimicrobial wells with pathogen load detected below the control wells (typically >2 cycle thresholds later) may be reported as Sensitive) | 23.552 |
